Measured values: article PMC10854894, “A New Benzo[6,7]oxepino[3,2-b] Pyridine Derivative Induces Apoptosis in Canine Mammary Cancer Cell Lines” (Animals : an Open Access Journal from MDPI, 2024)
Like-named read-outs stand apart in the source and are kept apart here.

Tests used:
Assay in all cases: MTT cell proliferation/cytotoxicity assay
Type in all cases: cell-based, canine
Conditions in all cases: Canis lupus familiaris, read-out: Half-Maximal Inhibitory Concentration (IC50)
CMGT071020 cells = test system: CMGT071020 cells
Method: (§1) The cytotoxic effects of the three BZOP derivatives were studied via the 3-(4,5-Dimethyl-2-thiazolyl)-2,5-diphenyl-2H-tetrazolium bromide (MTT) assay. The REM134, CMGT071020, and MDCK cell lines were seeded at a density of 5 × 10^3 cells/well in 96-well plates and allowed to grow for 24 h. They were then treated with the three BZOP derivatives at various concentrations (0–300 µM) for 24 or 48 h, whereas cells treated with the culture medium containing 0.1% dimethyl sulfoxide (DMSO) were used as a negative control as the compounds were dissolved in DMSO. Subsequently, the cells were incubated with 10 µL of an MTT solution (Sigma, St. Louis, MO, USA) for 4 h. After the incubation with MTT solution, 100 µL of a solubilization solution was added to dissolve water-insoluble purple formazan crystals, and the plate was incubated overnight at 37 °C in 5% CO2. The absorbance of the formazan solution was measured using a Synergy H1 hybrid multi-mode microplate reader (BioTek, Winooski, VT, USA) at 570 nm. The experiment was conducted with four replicates, and the relative cell viability (%) of the treated cells was expressed as a percentage relative to the untreated control cells, which were considered to have 100% viability.

MDCK cells = test system: MDCK cells
Method: as §1

REM134 cells = test system: REM134 cells
Method: as §1

Compound	IC50 (CMGT071020 cells; CMGT071020, 24 h) [µM]	IC50 (CMGT071020 cells; CMGT071020, 48 h) [µM]	IC50 (MDCK cells; 24 h) [µM]	IC50 (MDCK cells; 48 h) [µM]	IC50 (REM134 cells; REM134, 24 h) [µM]	IC50 (REM134 cells; REM134, 48 h) [µM]
[O-][n+]1cccc2c1C=Cc1cccnc1O2 [OPDOb, oxepino(2,3-b:6,7-b’)dipyridine 1-oxide]	> 300	> 300	> 300	> 300	> 300	172
[O-][n+]1cccc2c1C=Cc1ccncc1O2 [OPDOc, oxepino(3,2-b:7,6-c’)dipyridine 1-oxide]	> 300	> 300	> 300	> 300	> 300	> 300
